This note sets out measurements from US8507714B2, “7-membered ring compound and method of production and pharmaceutical application thereof” (Daiichi Sankyo Company, Limited, priority 2004, dated 2013).

As a reminder, the melting point is the temperature of the solid-liquid transition.

In data set [1] the test system is DNFB-induced dermatitis in C3H/HeN mice. The note with it: 10 mg/kg orally once a day; 24 hours after DNFB application at fifth application; female C3H/HeN mice. The protocol:
Effect of Test Compounds on Dermatitis Model Induced by Repeated Application of Hapten
As a control group, acetone:olive oil (1:3) was applied by the same protocol. Ear thickness was measured at every week before DNFB application and 24, 48 and 72 hours after DNFB application by using microgauge (Mitutoyo), and ear edema was evaluated by the increase in ear thickness compared to the ear thickness before the first DNFB application. […] The test compound was suspended in 0.5% hydroxypropylcellulose in distilled water (hereinafter referred to as “0.5% HPC-distilled water”) and was administered orally at doses of 2 and 10 mg/kg once a day, every day from just before the first application of hapten to the end of the experiment. Further, as a control, 0.5% HPC-distilled water instead of the test compound was administered by the same methods. The number of mice used in this experiment was seven per group.

`COc1ccc(F)cc1/C=C1\CNC(=O)CN(S(=O)(=O)c2ccc(Cl)s2)C1=O` gave a melting point of 150 to 153 °C.

Take `CC[C@@H](NC(=O)N1CC(=O)NC[C@@H](Cc2cc(Cl)ccc2OC)C1=O)c1cccc(C(=O)[O-])c1.[Na+]`: the melting point was 161 to 163 °C.

On to `COC(=O)C[C@@H]1C(=O)NC[C@H](Cc2cc(F)ccc2OC)C(=O)N1S(=O)(=O)c1ccc(Cl)cc1`, for which the melting point lay in the range of 73 to 76 °C.

For the compound `CC[C@@H](NC(=O)N1CC(=O)NCC(Cc2cc(Cl)ccc2OC)C1=O)C(=O)Nc1nnn[nH]1` (some centres unmarked), the melting point was in the range of 141 to 142 °C.

Regarding `CC[C@@H](NC(=O)N1CC(=O)NCC(Cc2cc(Cl)ccc2OC)C1=O)C(=O)Nc1ccc(C)c(C(=O)O)c1` (some centres unmarked), the melting point lay in the range of 132 to 134 °C.

`COC(=O)COc1ccc(Cl)cc1CC1CNC(=O)CN(S(=O)(=O)c2ccc(Cl)cc2)C1=O` (centres unmarked) displayed a melting point of 138 to 140 °C.

`O=C(CN1CC(Cc2ccccc2)C(=O)N(S(=O)(=O)c2ccc(Cl)cc2)CC1=O)NCc1ccccc1` (centres unmarked) gave a melting point of 187 to 190 °C.

Compound `COc1ccc(Cl)cc1CC1CNC(=O)CN(C(=O)Nc2cccc(NC(C)=O)c2)C1=O` (centres unmarked) returned a melting point of 130 to 131 °C.

For the compound `Cc1cccc(CC2CNC(=O)CN(S(=O)(=O)c3ccc(Cl)cc3)C2=O)c1` (centres unmarked), the melting point was 64 to 66 °C.

As for `N#Cc1ccc(S(=O)(=O)N2CC(=O)NC/C(=C\c3ccccc3)C2=O)cc1`, the melting point was 239 °C (dec.).

`COc1ccc(Cl)cc1C[C@H]1CNC(=O)[C@@H](C)N(S(=O)(=O)c2ccc(Cl)cc2)C1=O`: the melting point fell in the range of 78 to 80 °C.

With `COc1cc(Cl)c(F)cc1CC1CNC(=O)CN(S(=O)(=O)c2ccc(Cl)cc2)C1=O` (centres unmarked), the melting point was 80 to 90 °C.

In turn, `COc1ccc(Cl)cc1CC1CNC(=O)CN(S(=O)(=O)c2ccc(Cl)cc2)C1=O` (centres unmarked) [Compound 29, 6-(5-chloro-2-methoxybenzyl)-4-[(4-chlorophenyl)sulfonyl]-1,4-diazepan-2,5-dione] had a melting point of 110 to 112 °C. In data set [1], the “inhibition rate of the skin reaction” value is on record as 31.0%.

In the case of `COc1ccc(Cl)cc1CC1CNC(=O)CN(S(=O)(=O)c2ccc(Cl)c(N)c2)C1=O.Cl` (centres unmarked) [Compound 90, 4-[(3-amino-4-chlorophenyl)sulfonyl]-6-(5-chloro-2-methoxybenzyl)-1,4-diazepan-2,5-dione Hydrochloride], the “inhibition rate of the skin reaction” value in data set [1] is listed as 25.1%.

Turning to `CC[C@@H](NC(=O)N1CC(=O)NC[C@@H](Cc2cc(Cl)ccc2OC)C1=O)c1cccc(C(=O)O)c1` [Compound 91, 3-[(1R)-1-({[(6R)-6-(5-chloro-2-methoxybenzyl)-3,7-dioxo-1,4-diazepan-1-yl]carbonyl}amino)propyl]benzoic Acid], the melting point is 121 to 123 °C. For the same compound, the “inhibition rate of the skin reaction” value in data set [1] worked out at 26.1%.
